We go through one compound from patent US5990083A, “Multicatalytic protease inhibitors” (Cephalon, Inc., priority 1997, dated 1999).

For test [1], the target named is T1, human MCP (Homo sapiens, UniProt P28074+Q99436).
T1 construct: Samples of human liver and brain obtained post-mortem were used for isolation and partial purification of MCP; from tissue; host or cells: human liver and brain, post-mortem
Nature of the test: Determination of IC50 values for MCP inhibitors (chymotrypsin-like or trypsin-like activity of MCP). The class given is biochemical. The following applies: Table 5, first series; enzyme incubated with inhibitor 15 minutes at 37° C. prior to substrate. As to the method: Samples of human liver and brain obtained post-mortem were used for isolation and partial purification of MCP by ion-exchange chromatography, ammonium sulfate precipitation, and gel filtration (e.g., Driscoll and Goldberg, Proc. Natl. Acad. Sci. 86, 787-791 (1989); Yamamoto et al., Biochim, Biophys. Acta 882, 297-304 (1986). For either starting material, tissue was homogenized in 10 volumes of 20 mM Tris-HCl (pH 7.5) containing 20% glycerol. Following centrifugation at 40,000×g for 30 minutes, proteolytic activity of the chymotrypsin-like component of MCP could be detected in the supernatant (see below). The supernatant was fractionated on a DEAE-Sepharose Fast Flow column equilibrated in homogenization buffer. For each liter of supernatant, 250 ml of resin was used. Following sample loading, the column was washed with ^~ 10 volumes homogenization buffer, and proteins were eluted with a linear NaCl gradient of from 0 to 400 mM (21 for 250 ml resin). Fractions were assayed for MCP activity, and the active fractions were pooled and subjected to precipitation with (NH4)2 SO4 at 80% saturation. Precipitated proteins were collected by centrifugation, resuspended in homogenization buffer, and loaded on a Sephacryl S300HR column (500 ml resin volume) that had been standardized using bovine serum albumin (68 kDa). A single peak of MCP activity was eluted with a molecular weight of ^~ 650 kDa. This preparation was free of other measurable proteolytic activities and maintained its MCP activity upon storage at 4° C. for >6 months. This preparation was used for most of the experiments. Further fractionation of the preparation on an hydroxyapatite-Ultrogel column (Yamamoto et al., supra) yielded a more highly purified enzyme, which according to denaturing SDS-polyacrylamide gel electrophoresis was comprised of the expected >10 subunits ranging in Mr from 20 to 35 kDa.
The procedure for MPC isolation described above generated an enzyme complex whose proteolytic activities were latent, but which could be activated by addition of low concentrations (0.02-0.05%) of SDS (Yamamoto et al., supra). The chymotrypsin-like activity was assayed according to the following procedure: in 96 well microtiter plates, human MCP was diluted 4 to 10-fold in homogenization buffer containing 0.04% SDS. A calorimetric substrate MeOSuc-EVKM-para-nitroanilide (methoxysuccinyl-Glu-Val-Lys-Met-pNa), purchased from Bachem Bioscience Inc., King of Prussia, Pennsylvania was added to a final concentration of 100 μM from a stock solution of 10 mM in dimethylsulfoxide. Reaction volumes were 200 μl per well. After incubation for various periods of time at 37° C., the concentration of free pNa was determined on a Biotech EL-340 microplate reader, reading absorption at 490 nm. Protease activity was determined under conditions in which substrate hydrolysis increased linearly with time and the change in absorption was proportional to the concentration of free pNa. Alternatively, a fluorogenic substrate was used, methoxysuccinyl-Phe-Leu-Phe-amidomethylcoumarin (Enzyme Systems Products, Dublin, Calif.), and the change in fluorescence monitored at an excitation of 390 nm, and an emission at 460 nm.
The trypsin-like activity of human MCP was assayed as described above with the following modifications. Reactions were carried out in Tris-glycerol buffer (pH 9.5) supplemented with 1 mM 2-mercaptoethanol, and the substrate was a fluorogenic substrate, Benzyloxycarbonyl--Phe--Arg--AMC (100 μM).
After incubation for various periods of time at 37° C., the concentration of free AMC was determined on a Fluoroskan II spectrofluorimeter with an excitation filter of 390 nm and an emission filter of 460 nm. Protease activity was determined under conditions in which substrate hydrolysis increased linearly with time and the change in fluorescence was proportional to the concentration of free AMC. […]

In test [2] the test system is unweighting atrophy of the soleus muscle. Nature of the test: Inhibition of unweighting atrophy of the soleus muscle in juvenile rats (muscle protein content). The class given is in vivo, rat. The protocol: The effect of several inhibitors on the unweighting atrophy of the soleus muscle in juvenile rats was determined. See Tischler, M. E. (1990) Metabolism 39/7: 756-763 (hereinafter "Tischler--1990") for a general discussion of the procedure.
(§1) Juvenile female Sprague-Dawley rates (80-90 g) were tail-cast, hind limb suspended as in Jetspers, S. R. and Tischler, M. E., (1984) J. Appl. Physiol. 57: 1472-1479. The animal's hind limbs were elevated above the floor of the cage with each animal housed individually. Animals had free access to food and water, and were weighed at the time of suspension and at time of termination. During the suspension period the animals were checked daily to ensure that their toes were not touching the floor of the cage, and that there was no swelling of the tail due to the cast.
Each experiment began with the suspension of 20 rats which were randomly divided into 4 groups of 5 animals each. Group A was suspended for just 2 days and provided baseline data to approximate the soleus muscle size in other animals suspended for longer times. Average body weights for the groups at the outset of the study were compared and used as a correction factor for body size differences. […] See Tischler--1990. At 2 days after unweighting commenced, an aqueous solution of mersalyl (200 nM; 4 μl/100 g initial body wt) was injected into one soleus, as described previously. The contralateral muscle was injected with a similar volume of 0.9% saline ("Vehicle"). The animals were maintained under Innovar-vet (10 μl/100 g body wt) tranquilization during the in situ injection procedure. After the injections, the animals were suspended for an additional 24 hours and the soleus was removed. Groups C and D for each experiment were used for testing each of two different embodiments of the disclosed compounds.
(§2) Animals were treated as in group B, except that 1 mM MCP inhibitor, contained in dimethysulfoxide (DMSO), was injected into the soleus of one leg and DMSO only into the contralateral soleus. Thus each experiment consisted of two control groups and the testing of MCP inhibitors of the invention. The completion of five such experiments with different pairs of inhibitors provided for an "n" value of 10 for testing each MCP inhibitor and with each tested in two different shipments of animals.
(§3) After the animal was sacrificed, the soleus was excised, trimmed of fat and connective tissue, and carefully weighed. The muscle was then homogenized in 10% trichloroacetic acid (TCA) and the precipitated protein pelleted by centrifugation. The pellet was then washed once with 10% TCA and once with ethanol:ether (1:1). The final pellet was solubilized in 4 ml of 1N sodium hydroxide. The sample was then analyzed for protein content by the biuret procedure, using albumin as a standard.
The effect of MCP inhibitors on total muscle protein content was examined primarily by paired comparison with the untreated contralateral muscle. The ratio of contents was calculated and then analyzed statistically by analysis of variance ("ANOVA"). The left leg was always the treated leg so that the protein content ratios could be compared to the non-treated control animals as well. In this way, a significant difference can be shown by comparing the protein content of the two legs, as well as the relative effectiveness of the tested MCP inhibitors. A paired student test was also performed for the effect of each separate treatment. The non-treated control data also provided an estimate of protein content of day 2. This allowed approximation of the protein changes over the 24 hours of treatment for each of the Groups B, C, and D.

The subject of test [3] is Ile113→Thr mutant SOD-1 in human 293 cells. Put plainly: SOD-1 levels in transiently transfected 293 cells (immunoblot). To be noted: 5 μM, 24 hours, FIG. 5. Background: Immunoblotting shows a protein as a band on a membrane.
Experimental: The human kidney cell line designated 293 (human 293 cells or 293 cells)was obtained from the American Type Culture Collection (ATCC), 12301 Parklawn Drive, Rockville, Md., 20852 (ATCC #CRL 1573) and grown in Dulbecco's modified Eagle's medium with 4.6 g/L glucose, 10% heat-inactivated horse serum (Gibco/Life Technologies Inc. Gaithersburg, Md.). The human 293 cells were maintained at 37° C. in an atmosphere of 5% CO2. The 293 cells were transiently transfected using the calcium phosphate method (Chen, C. et al., Biotechniques 6: 632 (1988). The pCMV-113 SOD-1 expression vector was introduced into 293 cells and 24 hours later, the cells were incubated with either compound 34, compound 14, or compound 24, all at a concentration of 5 μM, for a duration of 24 hours. The known MCP and other protease inhibitory compounds were solubilized in dimethyl sulfoxide (DMSO). Other 293 cell cultures were incubated with an equal volume of DMSO or left in medium only as negative controls.
Approximately 48 hours prior to receiving test compounds, 5×10^5 293 cells were seeded in 36 mm dishes and maintained at 37° C. in an atmosphere of 5% CO2. Cells were incubated with MCP inhibitors (compound 34, 14 or 24) or with DMSO as a negative control for a duration of 24 hours. Cell lysates were prepared by lysing the cells in approximately 75 μl of phosphate-buffered saline (PBS) by freeze/thaw cycling. Protein concentrations of the cell lysates were determined using the BCA method (Pierce, Rockford, Ill.) and 2 to 2.5 μg of each sample was electrophoresed on a 4-20% polyacrylamide geol (Novex, San Diego, Calif.) using a Tris/glycine/SDS (25 mM Tris/192 mM glycine/0.1% SDS) buffer system. […] Stained bands corresponding to SOD-1 protein were quantitated using a DocuGel V image analysis system and RFLPscan software (Scanalytics, Billerica, Mass.). Levels of SOD-1 are expressed as units of induction relative to the negative control (i.e., units of experimental divided by units of control).
The test system of test [4] is control soleus muscle. Nature of the test: Effect of MCP inhibitors on control muscle protein content. The class given is in vivo, rat. The following applies: Table 1; treated soleus versus vehicle-injected contralateral muscle.
Source text: as §1, §2, §3
The effect of MCP inhibitors on total muscle protein content was examined primarily by paired comparison with the untreated contralateral muscle. The ratio of contents was calculated and then analyzed statistically by analysis of variance ("ANOVA"). The left leg was always the treated leg so that the protein content ratios could be compared to the non-treated control animals as well. In this way, a significant difference can be shown by comparing the protein content of the two legs, as well as the relative effectiveness of the tested MCP inhibitors. […]

pIC50: −log10 of the molar value.

In general, pIC50 refers to the negative decadic logarithm of the IC50, by convention in mol/L. Read a low pIC50 as a large IC50. In test [1], `COC(=O)CCCCCCCC(=O)N[C@@H](CCCN=C(N)NS(=O)(=O)c1c(C)cc(OC)c(C)c1C)C(=O)N[C@H](C=O)CC(C)C` [Compound 34, Monomethylazelayl-N^g-(4-methoxy,2,3,6-trimethylbenzene-1-sulfonyl)-L-arginyl-L-leucinal] gave a pIC50 of 7.10. Also, in test [2] (Table 2, 24 hours after in situ soleus injection at day 2 of unweighting, MCP inhibitor 1 mM in DMSO, mersalyl 200 nM aqueous), the “Protein, End (day 3 of unweighting)” value is reported as 6.6 mg/muscle. The “Effect (%), change in protein content during day 3 of unweighting” value in test [2] (Table 2, End versus Start (estimated day 2 content)) is recorded as “+5%”. Further, in test [2] (Table 3, Treatment versus Vehicle contralateral muscle), the “Effect (%) on unweighted muscle protein” value is 12%. In addition, the “Protein, Treatment (unweighted muscle)” value in test [2] (Table 3, treated soleus, contralateral muscle received vehicle, MCP inhibitor 1 mM in DMSO, mersalyl 200 nM) came to 6.6 mg/muscle. Further, in test [3], the “SOD-1 levels compared to controls” value is listed as “modestly elevated”. Moreover, the “Protein, Treatment (control muscle)” value in test [4] was 6.3 mg/muscle.
